Reference: patent US20070128217A1 (priority 2003, published 2007)

What was measured:
[1] = system: rabbit serum obtained by immunizing a rabbit with the SARS-CoV strain Frankfurt 1; assay type: binding; set-up: Binding of a rabbit serum to linear peptides / Binding of a rabbit serum to looped peptides / Rabbit serum linear peptides / Rabbit serum looped peptides / Binding of a rabbit serum to linear peptides of protein N of SARS-CoV Urbani (Rabbit serum linear peptides) / Binding of a rabbit serum to looped/cyclic peptides of protein N of SARS-CoV Urbani (Rabbit serum looped peptides): unit not given here
[2] = system: antibodies in sera from SARS patients (sera 1a, 1b, 2, 6, 37, 62, London, SARS-yellow, SARS-green); assay type: binding, human; set-up: Binding of serum 6 to linear peptides of protein X1 of SARS-CoV Urbani / Binding of serum 37 to linear peptides of protein X1 of SARS-CoV Urbani / Binding of serum 6 to looped/cyclic peptide (PEPSCAN-ELISA) / Binding of serum 37 to looped/cyclic peptide (PEPSCAN-ELISA) / Binding of serum 37 to looped/cyclic peptides of protein X1 of SARS-CoV Urbani / Binding of serum 6 to linear peptides of protein X2 / Binding of serum 37 to linear peptides of protein X2 / Binding of serum 37 to looped/cyclic peptides of protein X2 of SARS-CoV Urbani / Binding of serum 6 to linear peptides of protein M of SARS-CoV Urbani / Binding of serum 37 to linear peptides of protein M of SARS-CoV Urbani / Binding of serum 6 to looped/cyclic peptides of protein M of SARS-CoV Urbani / Binding of serum 37 to looped/cyclic peptides of protein M of SARS-CoV Urbani / Binding of serum 6 to linear peptides of protein X3 of SARS-CoV Urbani / Binding of serum 37 to linear peptides of protein X3 of SARS-CoV Urbani / Binding of serum 37 to looped/cyclic peptides of protein X3 of SARS-CoV Urbani / Binding of serum 6 to linear peptides of protein X4 of SARS-CoV Urbani / Binding of serum 37 to linear peptides of protein X4 of SARS-CoV Urbani / Binding of serum 37 to looped/cyclic peptides of protein X4 of SARS-CoV Urbani / Binding of serum 6 to linear peptides of protein X5 of SARS-CoV Urbani / Binding of serum 37 to linear peptides of protein X5 of SARS-CoV Urbani / Binding of serum 37 to looped/cyclic peptides of protein X5 of SARS-CoV Urbani / Binding of serum 6 to linear peptides of protein N of SARS-CoV Urbani / Binding of serum 37 to linear peptides of protein N of SARS-CoV Urbani / Binding of serum 6 to linear peptide (PEPSCAN-ELISA) / Binding of serum 1a to looped/cyclic peptides of protein N of SARS-CoV Urbani / Binding of serum 1b to looped/cyclic peptides of protein N of SARS-CoV Urbani / Binding of serum 2 to looped/cyclic peptides of protein N of SARS-CoV Urbani / Binding of serum 6 to looped/cyclic peptides of protein N of SARS-CoV Urbani / Binding of serum 37 to looped/cyclic peptides of protein N of SARS-CoV Urbani / Binding of serum 62 to looped/cyclic peptides of protein N of SARS-CoV Urbani / Binding of serum London to looped/cyclic peptides of protein N of SARS-CoV Urbani / Binding of serum SARS-green to looped/cyclic peptides of protein N of SARS-CoV Urbani: unit not given here
[3] = system: control sera (pooled serum of ten healthy LUMC hospital workers; commercial negative donor pooled serum from the Dutch bloodbank); assay type: binding, human; set-up: Binding of Control serum LUMC to linear peptides / Binding of Control serum Blood-bank to linear peptides / Binding of Control serum LUMC to looped peptides / Binding of Control Serum Blood-Bank to Looped peptides / Binding of Control serum LUMC to linear peptides of the protein M of SARS-CoV Urbani / Binding of Control serum Blood-bank to linear peptides of the protein M of SARS-CoV Urbani / Binding of Control serum LUMC to looped peptides of the protein M of SARS-CoV Urbani / Binding of Control Serum Blood-Bank to Looped peptides of the protein M of SARS-CoV Urbani: unit not given here

Sequence: TAAFRDVLVVLNKRT
- Rabbit serum linear peptides [1]: 0.3
- Rabbit serum looped peptides [1]: 0.4
- Binding of serum 1a to linear peptides of protein X5 of SARS-CoV Urbani [2]: 0.5
- Binding of serum 1a to looped/cyclic peptides of protein X5 of SARS-CoV Urbani [2]: 0.7
- Binding of serum 1b to linear peptides of protein X5 of SARS-CoV Urbani [2]: 0.6
- Binding of serum 1b to looped/cyclic peptides of protein X5 of SARS-CoV Urbani [2]: 0.6
- Binding of serum 2 to linear peptides of protein X5 of SARS-CoV Urbani [2]: 0.6
- Binding of serum 2 to looped/cyclic peptides of protein X5 of SARS-CoV Urbani [2]: 0.7
- Binding of serum 6 to linear peptides of protein X5 of SARS-CoV Urbani [2]: 0.6
- Binding of serum 6 to looped/cyclic peptides of protein X5 of SARS-CoV Urbani [2]: 0.9
- Binding of serum 37 to linear peptides of protein X5 of SARS-CoV Urbani [2]: 0.5
- Binding of serum 37 to looped/cyclic peptides of protein X5 of SARS-CoV Urbani [2]: 0.6
- Binding of serum 62 to linear peptides of protein X5 of SARS-CoV Urbani [2]: 0.5
- Binding of serum 62 to looped/cyclic peptides of protein X5 of SARS-CoV Urbani [2]: 0.6
- Binding of serum London to linear peptides of protein X5 of SARS-CoV Urbani [2]: 0.5
- Binding of serum London to looped/cyclic peptides of protein X5 of SARS-CoV Urbani [2]: 1.1
- Binding of serum SARS-green to linear peptides of protein X5 of SARS-CoV Urbani [2]: 0.2
- Binding of serum SARS-green to looped/cyclic peptides of protein X5 of SARS-CoV Urbani [2]: 0.5
- Binding of serum SARS-yellow to linear peptides of protein X5 of SARS-CoV Urbani [2]: 0.7
- Binding of serum SARS-yellow to looped/cyclic peptides of protein X5 of SARS-CoV Urbani [2]: 0.5
- Binding of Control Serum Blood-Bank to Looped peptides [3]: 0.8
- Binding of Control serum Blood-bank to linear peptides [3]: 0.7
- Binding of Control serum LUMC to linear peptides [3]: 0.8
- Binding of Control serum LUMC to looped peptides [3]: 0.6

Sequence: IYSHLLLVAAGMEAQ
- Binding of a rabbit serum to linear peptides [1]: 0.1
- Binding of a rabbit serum to looped peptides [1]: 0.4
- Binding of serum 1a to linear peptides of protein X1 of SARS-CoV Urbani [2]: 0.6
- Binding of serum 1a to looped/cyclic peptide (PEPSCAN-ELISA) [2]: 0.5
- Binding of serum 1b to linear peptides of protein X1 of SARS-CoV Urbani [2]: 0.5
- Binding of serum 1b to looped/cyclic peptide (PEPSCAN-ELISA) [2]: 0.4
- Binding of serum 2 to linear peptides of protein X1 of SARS-CoV Urbani [2]: 0.5
- Binding of serum 2 to looped/cyclic peptide (PEPSCAN-ELISA) [2]: 0.3
- Binding of serum 6 to linear peptides of protein X1 of SARS-CoV Urbani [2]: 0.4
- Binding of serum 6 to looped/cyclic peptide (PEPSCAN-ELISA) [2]: 0.3
- Binding of serum 37 to linear peptides of protein X1 of SARS-CoV Urbani [2]: 0.6
- Binding of serum 37 to looped/cyclic peptide (PEPSCAN-ELISA) [2]: 0.5
- Binding of serum 62 to linear peptides of protein X1 of SARS-CoV Urbani [2]: 0.6
- Binding of serum 62 to looped/cyclic peptide (PEPSCAN-ELISA) [2]: 0.5
- Binding of serum London to linear peptides of protein X1 of SARS-CoV Urbani [2]: 0.3
- Binding of serum London to looped/cyclic peptide (PEPSCAN-ELISA) [2]: 0.2
- Binding of serum SARS-green to linear peptides of protein X1 of SARS-CoV Urbani [2]: 0.2
- Binding of serum SARS-green to looped/cyclic peptide (PEPSCAN-ELISA) [2]: 0.2
- Binding of serum SARS-yellow to linear peptides of protein X1 of SARS-CoV Urbani [2]: 0.3
- Binding of serum SARS-yellow to looped/cyclic peptide (PEPSCAN-ELISA) [2]: 0.2
- Binding of Control Serum Blood-Bank to Looped peptides [3]: 0.4
- Binding of Control serum Blood-bank to linear peptides [3]: 0.5
- Binding of Control serum LUMC to linear peptides [3]: 0.5
- Binding of Control serum LUMC to looped peptides [3]: 0.5

Sequence: IKDLPKEITVATSRT
- Rabbit serum linear peptides [1]: 0.3
- Rabbit serum looped peptides [1]: 0.2
- Binding of serum 1a to linear peptides of protein M of SARS-CoV Urbani [2]: 0.7
- Binding of serum 1a to looped/cyclic peptides of protein M of SARS-CoV Urbani [2]: 0.4
- Binding of serum 1b to linear peptides of protein M of SARS-CoV Urbani [2]: 0.5
- Binding of serum 1b to looped/cyclic peptides of protein M of SARS-CoV Urbani [2]: 0.4
- Binding of serum 2 to linear peptides of protein M of SARS-CoV Urbani [2]: 0.6
- Binding of serum 2 to looped/cyclic peptides of protein M of SARS-CoV Urbani [2]: 0.5
- Binding of serum 6 to linear peptides of protein M of SARS-CoV Urbani [2]: 0.3
- Binding of serum 6 to looped/cyclic peptides of protein M of SARS-CoV Urbani [2]: 0.4
- Binding of serum 37 to linear peptides of protein M of SARS-CoV Urbani [2]: 0.8
- Binding of serum 37 to looped/cyclic peptides of protein M of SARS-CoV Urbani [2]: 0.6
- Binding of serum 62 to linear peptides of protein M of SARS-CoV Urbani [2]: 0.8
- Binding of serum 62 to looped/cyclic peptides of protein M of SARS-CoV Urbani [2]: 0.6
- Binding of serum London to linear peptides of protein M of SARS-CoV Urbani [2]: 0.3
- Binding of serum London to looped/cyclic peptides of protein M of SARS-CoV Urbani [2]: 0.2
- Binding of serum SARS-green to linear peptides of protein M of SARS-CoV Urbani [2]: 0.2
- Binding of serum SARS-green to looped/cyclic peptides of protein M of SARS-CoV Urbani [2]: 0.3
- Binding of serum SARS-yellow to linear peptides of protein M of SARS-CoV Urbani [2]: 0.0
- Binding of serum SARS-yellow to looped/cyclic peptides of protein M of SARS-CoV Urbani [2]: 0.9
- Binding of Control Serum Blood-Bank to Looped peptides of the protein M of SARS-CoV Urbani [3]: 0.5
- Binding of Control serum Blood-bank to linear peptides of the protein M of SARS-CoV Urbani [3]: 0.6
- Binding of Control serum LUMC to linear peptides of the protein M of SARS-CoV Urbani [3]: 0.4
- Binding of Control serum LUMC to looped peptides of the protein M of SARS-CoV Urbani [3]: 0.7
